Reference: BigSolDB 2.1

For `C1CC1N1C2C3N(C4CC4)C1C1N(C4CC4)C(C(N1C1CC1)N3C1CC1)N2C1CC1`, the solubility (mole fraction) (in 1,1,2-trichloroethane, 278.15 K) was 0.00866, the solubility (mole fraction) (in 1,1,2-trichloroethane, 283.15 K) was 0.00991 and the solubility (mole fraction) (in 1,1,2-trichloroethane, 288.15 K) was 0.0113. For the same compound, the solubility (mole fraction) (in 1,1,2-trichloroethane, 293.15 K) was 0.0127, the solubility (mole fraction) (in 1,1,2-trichloroethane, 298.15 K) was 0.0143 and the solubility (mole fraction) (in 1,1,2-trichloroethane, 303.15 K) was 0.0161. The solubility (mole fraction) (in 1,1,2-trichloroethane, 308.15 K) was 0.0182, the solubility (mole fraction) (in 1,1,2-trichloroethane, 313.15 K) was 0.0206 and the solubility (mole fraction) (in 1,1,2-trichloroethane, 318.15 K) was 0.0234. The solubility (mole fraction) (in 1,2-dichloroethane, 278.15 K) was 0.00228, the solubility (mole fraction) (in 1,2-dichloroethane, 283.15 K) was 0.00279 and the solubility (mole fraction) (in 1,2-dichloroethane, 288.15 K) was 0.00343. It also gave a solubility (mole fraction) (in 1,2-dichloroethane, 293.15 K) of 0.00421, a solubility (mole fraction) (in 1,2-dichloroethane, 298.15 K) of 0.00513 and a solubility (mole fraction) (in 1,2-dichloroethane, 303.15 K) of 0.00624. The solubility (mole fraction) (in 1,2-dichloroethane, 308.15 K) was 0.00752, the solubility (mole fraction) (in 1,2-dichloroethane, 313.15 K) was 0.00903 and the solubility (mole fraction) (in 1,2-dichloroethane, 318.15 K) was 0.0108. For the same compound, the solubility (mole fraction) (in acetone, 278.15 K) was 0.000269, the solubility (mole fraction) (in acetone, 283.15 K) was 0.000333 and the solubility (mole fraction) (in acetone, 288.15 K) was 0.000411. It also gave a solubility (mole fraction) (in acetone, 293.15 K) of 0.000503, a solubility (mole fraction) (in acetone, 298.15 K) of 0.000611 and a solubility (mole fraction) (in acetone, 303.15 K) of 0.000736. For the same compound, the solubility (mole fraction) (in acetone, 308.15 K) was 0.000875, the solubility (mole fraction) (in acetone, 313.15 K) was 0.00103 and the solubility (mole fraction) (in acetone, 318.15 K) was 0.0012. For the same compound, the solubility (mole fraction) (in acetonitrile, 278.15 K) was 5.71e-05, the solubility (mole fraction) (in acetonitrile, 283.15 K) was 6.68e-05 and the solubility (mole fraction) (in acetonitrile, 288.15 K) was 7.76e-05. The solubility (mole fraction) (in acetonitrile, 293.15 K) was 8.91e-05, the solubility (mole fraction) (in acetonitrile, 298.15 K) was 0.000101 and the solubility (mole fraction) (in acetonitrile, 303.15 K) was 0.000114. For the same compound, the solubility (mole fraction) (in acetonitrile, 308.15 K) was 0.000128, the solubility (mole fraction) (in acetonitrile, 313.15 K) was 0.000143 and the solubility (mole fraction) (in acetonitrile, 318.15 K) was 0.000159. The solubility (mole fraction) (in chloroform, 278.15 K) was 0.0231, the solubility (mole fraction) (in chloroform, 283.15 K) was 0.0263 and the solubility (mole fraction) (in chloroform, 288.15 K) was 0.0297. The solubility (mole fraction) (in chloroform, 293.15 K) was 0.0332, the solubility (mole fraction) (in chloroform, 298.15 K) was 0.0367 and the solubility (mole fraction) (in chloroform, 303.15 K) was 0.0405. For the same compound, the solubility (mole fraction) (in chloroform, 308.15 K) was 0.0444, the solubility (mole fraction) (in cyclohexane, 283.15 K) was 0.00931 and the solubility (mole fraction) (in cyclohexane, 288.15 K) was 0.0111. It also gave a solubility (mole fraction) (in cyclohexane, 293.15 K) of 0.0132, a solubility (mole fraction) (in cyclohexane, 298.15 K) of 0.0157 and a solubility (mole fraction) (in cyclohexane, 303.15 K) of 0.0186. It also gave a solubility (mole fraction) (in cyclohexane, 308.15 K) of 0.0218, a solubility (mole fraction) (in cyclohexane, 313.15 K) of 0.0255 and a solubility (mole fraction) (in cyclohexane, 318.15 K) of 0.0297. For the same compound, the solubility (mole fraction) (in dichloromethane, 278.15 K) was 0.0129, the solubility (mole fraction) (in dichloromethane, 283.15 K) was 0.0147 and the solubility (mole fraction) (in dichloromethane, 288.15 K) was 0.0169. The solubility (mole fraction) (in dichloromethane, 293.15 K) was 0.0194, the solubility (mole fraction) (in dichloromethane, 298.15 K) was 0.0222 and the solubility (mole fraction) (in dichloromethane, 303.15 K) was 0.0255. For the same compound, the solubility (mole fraction) (in dichloromethane, 308.15 K) was 0.0291, the solubility (mole fraction) (in ethanol, 278.15 K) was 0.000225 and the solubility (mole fraction) (in ethanol, 283.15 K) was 0.000283. For the same compound, the solubility (mole fraction) (in ethanol, 288.15 K) was 0.00036, the solubility (mole fraction) (in ethanol, 293.15 K) was 0.000452 and the solubility (mole fraction) (in ethanol, 298.15 K) was 0.000557. For the same compound, the solubility (mole fraction) (in ethanol, 303.15 K) was 0.000675, the solubility (mole fraction) (in ethanol, 308.15 K) was 0.000805 and the solubility (mole fraction) (in ethanol, 313.15 K) was 0.000951. The solubility (mole fraction) (in ethanol, 318.15 K) was 0.00111, the solubility (mole fraction) (in ethyl acetate, 278.15 K) was 0.00121 and the solubility (mole fraction) (in ethyl acetate, 283.15 K) was 0.0014. It also gave a solubility (mole fraction) (in ethyl acetate, 288.15 K) of 0.00168, a solubility (mole fraction) (in ethyl acetate, 293.15 K) of 0.00204 and a solubility (mole fraction) (in ethyl acetate, 298.15 K) of 0.00249. The solubility (mole fraction) (in ethyl acetate, 303.15 K) was 0.00305, the solubility (mole fraction) (in ethyl acetate, 308.15 K) was 0.00373 and the solubility (mole fraction) (in ethyl acetate, 313.15 K) was 0.00455. For the same compound, the solubility (mole fraction) (in ethyl acetate, 318.15 K) was 0.00552, the solubility (mole fraction) (in methanol, 278.15 K) was 4.66e-05 and the solubility (mole fraction) (in methanol, 283.15 K) was 7.71e-05. The solubility (mole fraction) (in methanol, 288.15 K) was 0.00011, the solubility (mole fraction) (in methanol, 293.15 K) was 0.000144 and the solubility (mole fraction) (in methanol, 298.15 K) was 0.00018. The solubility (mole fraction) (in methanol, 303.15 K) was 0.000219, the solubility (mole fraction) (in methanol, 308.15 K) was 0.000259 and the solubility (mole fraction) (in methanol, 313.15 K) was 0.0003. It also gave a solubility (mole fraction) (in methanol, 318.15 K) of 0.000341, a solubility (mole fraction) (in n-hexane, 278.15 K) of 0.00406 and a solubility (mole fraction) (in n-hexane, 283.15 K) of 0.00447. It also gave a solubility (mole fraction) (in n-hexane, 288.15 K) of 0.00507, a solubility (mole fraction) (in n-hexane, 293.15 K) of 0.00588 and a solubility (mole fraction) (in n-hexane, 298.15 K) of 0.00692. It also gave a solubility (mole fraction) (in n-hexane, 303.15 K) of 0.00819, a solubility (mole fraction) (in n-hexane, 308.15 K) of 0.00973 and a solubility (mole fraction) (in n-hexane, 313.15 K) of 0.0116. The solubility (mole fraction) (in n-hexane, 318.15 K) was 0.0138, the solubility (mole fraction) (in tetrachloromethane, 278.15 K) was 0.0269 and the solubility (mole fraction) (in tetrachloromethane, 283.15 K) was 0.0298. For the same compound, the solubility (mole fraction) (in tetrachloromethane, 288.15 K) was 0.0333, the solubility (mole fraction) (in tetrachloromethane, 293.15 K) was 0.0372 and the solubility (mole fraction) (in tetrachloromethane, 298.15 K) was 0.0415. For the same compound, the solubility (mole fraction) (in tetrachloromethane, 303.15 K) was 0.0461, the solubility (mole fraction) (in tetrachloromethane, 308.15 K) was 0.0511 and the solubility (mole fraction) (in tetrachloromethane, 313.15 K) was 0.0568. For the same compound, the solubility (mole fraction) (in tetrachloromethane, 318.15 K) was 0.0632.
